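In this assay, cells in 96-well plates receive the compound at five concentrations for 48 hours. Endpoints are linearly interpolated between the surrounding concentrations. GI50 = concentration required for 50% inhibition of growth. TGI: concentration producing complete growth inhibition.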

Some test systems named below: OVCAR-3 ovarian; UACC-62 melanoma; BT-549 breast; ACHN renal; DU-145 prostate; HS 578T breast; HL-60(TB) leukemia; SK-OV-3 ovarian; M14 melanoma; A549 NSCLC.
What all share (experiment): inhibition of tumour cell growth, NCI panel, 48 h

For `NC(=O)c1ccccc1NC(=O)c1ccccc1Cl`, the GI50 in the assay on OVCAR-3 ovarian, with UACC-62 melanoma, with BT-549 breast, in the assay with ACHN renal, in the assay on DU-145 prostate and in the assay on HS 578T breast was > 100 µM each time. Besides, the GI50 in the assay with HL-60(TB) leukemia, in the assay on SK-OV-3 ovarian, in the assay with M14 melanoma and in the assay on A549 NSCLC was > 100 µM throughout. In addition, the TGI in the assay on OVCAR-3 ovarian, in the assay on UACC-62 melanoma, in the assay on BT-549 breast, with ACHN renal, in the assay with DU-145 prostate and in the assay on HS 578T breast was > 100 µM each time. Also, the TGI in the assay with HL-60(TB) leukemia, with SK-OV-3 ovarian, in the assay with M14 melanoma and in the assay on A549 NSCLC was > 100 µM in each case.

For `COc1ccc(-c2cc(-c3cccc(NS(C)(=O)=O)c3)nc(N)c2C#N)cc1`, the GI50 with OVCAR-3 ovarian is 0.0298 µM; in the assay with UACC-62 melanoma, 0.0459 µM; with BT-549 breast, 0.127 µM; in the assay with ACHN renal it was 0.0789 µM; in the assay with DU-145 prostate it was 0.164 µM; in the assay on HS 578T breast, 0.0468 µM. The GI50 with HL-60(TB) leukemia was 0.0637 µM; with SK-OV-3 ovarian it was 0.0879 µM; with M14 melanoma, 0.0808 µM; with A549 NSCLC, 0.109 µM. In addition, the TGI in the assay on OVCAR-3 ovarian amounted to 0.115 µM; in the assay with UACC-62 melanoma, 15.9 µM; in the assay on BT-549 breast, 12.3 µM; in the assay on ACHN renal, 43.9 µM; in the assay with DU-145 prostate, 8.82 µM; in the assay with HS 578T breast, 2.39 µM. In addition, the TGI was 1.26 µM with HL-60(TB) leukemia, 1.57 µM in the assay on SK-OV-3 ovarian, 10.7 µM in the assay with M14 melanoma and > 93.4 µM in the assay on A549 NSCLC.

As for `CC1(C)CC([P+](c2ccccc2)(c2ccccc2)c2ccccc2)=NN1`, the GI50 was 2.18 µM in the assay on OVCAR-3 ovarian; 3.17 µM with UACC-62 melanoma; 1.03 µM with BT-549 breast; 60.2 µM in the assay with ACHN renal; 4.34 µM in the assay on DU-145 prostate; 4.96 µM in the assay with HS 578T breast. For the same compound, the GI50 was 1.91 µM in the assay on HL-60(TB) leukemia, 11.7 µM with SK-OV-3 ovarian, 11.4 µM in the assay on M14 melanoma and 5.1 µM with A549 NSCLC. The TGI with OVCAR-3 ovarian is 73.7 µM; with UACC-62 melanoma it was > 100 µM; in the assay on BT-549 breast, 4.42 µM; in the assay with ACHN renal, > 100 µM; in the assay on DU-145 prostate, > 100 µM; with HS 578T breast, > 100 µM. For the same compound, the TGI in the assay on HL-60(TB) leukemia is 9.19 µM; with SK-OV-3 ovarian it was 68.7 µM; in the assay with M14 melanoma, > 100 µM; in the assay on A549 NSCLC, > 100 µM.

Take `CCCCCCCCCCCCCCCCCCOc1ccccc1CC(=O)NCC[N+](C)(C)C`: the GI50 with OVCAR-3 ovarian was 3.55 µM; in the assay on UACC-62 melanoma it was 6.55 µM; with BT-549 breast, 3.25 µM; with ACHN renal it was 12.9 µM; in the assay with DU-145 prostate, 4.97 µM; in the assay with HS 578T breast, 4.26 µM. The GI50 is 15.4 µM with SK-OV-3 ovarian, 3.14 µM with M14 melanoma and 4.91 µM in the assay on A549 NSCLC. Besides, the TGI is 50.5 µM in the assay on OVCAR-3 ovarian; 62.5 µM in the assay with UACC-62 melanoma; > 100 µM with BT-549 breast; 49.2 µM in the assay on ACHN renal; 39.2 µM in the assay on DU-145 prostate; > 100 µM with HS 578T breast. For the same compound, the TGI with SK-OV-3 ovarian is 35.7 µM; with M14 melanoma it was > 100 µM; in the assay on A549 NSCLC, 51.8 µM.

With `Nc1c(C(=O)N/N=C/c2ccc(-c3cc(Cl)c(Cl)cc3Cl)o2)cnn1-c1ccnc2c(C(F)(F)F)cccc12`, the GI50 was 3.1 µM in the assay with OVCAR-3 ovarian; 3.94 µM with UACC-62 melanoma; 3.55 µM in the assay with ACHN renal; 3.56 µM in the assay on DU-145 prostate; 5.04 µM in the assay on HS 578T breast; 3.18 µM in the assay on HL-60(TB) leukemia. In addition, the GI50 with SK-OV-3 ovarian was 4.81 µM; with M14 melanoma it was 5.28 µM; in the assay with A549 NSCLC, 4.3 µM. The TGI in the assay with OVCAR-3 ovarian, in the assay with UACC-62 melanoma, in the assay on ACHN renal, with DU-145 prostate, in the assay on HS 578T breast and with HL-60(TB) leukemia was > 100 µM throughout. Besides, the TGI in the assay on SK-OV-3 ovarian was 73 µM; with M14 melanoma, > 100 µM; with A549 NSCLC, > 100 µM.

Consider `FC(F)(F)c1cccc2c(SCCc3n[nH]c(=S)o3)ccnc12`, for which the GI50 in the assay on OVCAR-3 ovarian is 42.9 µM; in the assay with UACC-62 melanoma, 16.6 µM; in the assay on BT-549 breast, 30 µM; with ACHN renal, 60.2 µM; in the assay on DU-145 prostate it was 78.4 µM; in the assay on HS 578T breast it was 30.1 µM. The GI50 in the assay with HL-60(TB) leukemia was 67.8 µM; in the assay on SK-OV-3 ovarian it was 92.7 µM; in the assay with A549 NSCLC it was 51.6 µM. Moreover, the TGI was > 100 µM in the assay with OVCAR-3 ovarian; 34 µM in the assay on UACC-62 melanoma; > 100 µM in the assay on BT-549 breast; > 100 µM in the assay on ACHN renal; > 100 µM in the assay with DU-145 prostate; > 100 µM in the assay with HS 578T breast. The TGI with HL-60(TB) leukemia, in the assay with SK-OV-3 ovarian and with A549 NSCLC was > 100 µM each time.

As for `CNC1=C(C(=O)OC)SC(c2ccccc2)(c2ccccc2)SC1`, the GI50 is > 100 µM in the assay on OVCAR-3 ovarian; 9.51 µM with UACC-62 melanoma; 29.5 µM in the assay with BT-549 breast; 20.4 µM in the assay on DU-145 prostate; 28.1 µM in the assay with HS 578T breast; 12 µM in the assay on HL-60(TB) leukemia. Moreover, the GI50 with SK-OV-3 ovarian was 71.1 µM; with M14 melanoma it was 7.12 µM; in the assay on A549 NSCLC it was 9.63 µM. The TGI is > 100 µM in the assay with OVCAR-3 ovarian; > 100 µM in the assay on UACC-62 melanoma; > 100 µM in the assay with BT-549 breast; > 100 µM with DU-145 prostate; > 100 µM with HS 578T breast; 58.2 µM with HL-60(TB) leukemia. In addition, the results for the TGI in the assay with SK-OV-3 ovarian, in the assay with M14 melanoma and with A549 NSCLC were > 100 µM, 67.7 µM and > 100 µM, respectively.

For `c1ccc(B2OCC(C3OB(c4ccccc4)OC4COB(c5ccccc5)OC43)O2)cc1` (stereo unspecified), the TGI in the assay with OVCAR-3 ovarian, in the assay on UACC-62 melanoma, in the assay with BT-549 breast, with ACHN renal, with DU-145 prostate and with HS 578T breast was > 100 µM in each case. The TGI in the assay on SK-OV-3 ovarian, in the assay on M14 melanoma and in the assay with A549 NSCLC was > 100 µM each time.

The record behind these values is PubChem BioAssay (NCI).
